# Results reported in US8975398B2, “NAMPT inhibitors” (AbbVie Inc., priority 2012, dated 2015).
# Test system: PC3 cells
# Test: NAMPT Cell Proliferation Assay (Cell Titer Glo; also performed in the presence of 0.3 mM nicotinamide mononucleotide)
# Type: cell-based
# Settings: Homo sapiens, PC-3, 120 h, 5 days incubation, cell viability by Cell Titer Glo
# Outline: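 Cell Titer Glo viability after 5-day exposure (37° C, 5% CO2); PC3, 500 cells/well, RPMI + 10% heat-inactivated FBS, overnight attachment before dosing. Dose range 10 μM to 1×10^−5 μM, 10-fold steps. IC50 = sigmoidal fit of % inhibition.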
row,SMILES,IC50
1,"CC(C)(C)OC(=O)N1CCC(n2cc(NC(=O)C3CN(c4cccnn4)C3)cn2)CC1 [Example 925, tert-butyl 4-[4-({[1-(pyridazin-3-yl)azetidin-3-yl]carbonyl}amino)-1H-pyrazol-1-yl]piperidine-1-carboxylate]",10.1 nM
2,"O=C(Nc1ccsc1)c1ccc(NC(=O)C2CN(c3cccnn3)C2)cc1 [Example 984, 1-(pyridazin-3-yl)-N-[4-(thiophen-3-ylcarbamoyl)phenyl]azetidine-3-carboxamide]",696 nM
3,"COCCNC(=O)c1ccc(NC(=O)C2CN(c3cccnn3)C2)cc1 [Example 1023, N-{4-[(2-methoxyethyl)carbamoyl]phenyl}-1-(pyridazin-3-yl)azetidine-3-carboxamide]",508 nM
4,"O=C(Nc1cccc(F)c1)c1ccc(NC(=O)C2CN(c3cccnn3)C2)cc1 [Example 1007, N-{4-[(3-fluorophenyl)carbamoyl]phenyl}-1-(pyridazin-3-yl)azetidine-3-carboxamide]",56.7 nM
5,"CC(C)(C)Cn1cc(-c2ccc(NC(=O)C3CN(c4ccc(Cl)nn4)C3)cc2)cn1 [Example 875, 1-(6-chloropyridazin-3-yl)-N-{4-[1-(2,2-dimethylpropyl)-1H-pyrazol-4-yl]phenyl}azetidine-3-carboxamide]",> 10000 nM
6,"CN1CCCC(NC(=O)c2ccc(NC(=O)C3CN(c4cccnn4)C3)cc2)C1 (stereo not drawn) [Example 998, N-{4-[(1-methylpiperidin-3-yl)carbamoyl]phenyl}-1-(pyridazin-3-yl)azetidine-3-carboxamide]",1280 nM
7,"O=C(NC1CCOCC1)c1ccc(NC(=O)C2CN(c3cccnn3)C2)cc1 [Example 1002, 1-(pyridazin-3-yl)-N-[4-(tetrahydro-2H-pyran-4-ylcarbamoyl)phenyl]azetidine-3-carboxamide]",911 nM
8,"CCCNC(=O)c1ccc(NC(=O)C2CN(c3cccnn3)C2)cc1 [Example 1008, N-[4-(propylcarbamoyl)phenyl]-1-(pyridazin-3-yl)azetidine-3-carboxamide]",299 nM

# The next lines start with the values.
row,IC50,SMILES
1,70.8 nM,"O=C(Nc1cnn(C2CCN(C(=O)c3ccccc3F)CC2)c1)C1CN(c2cccnn2)C1 [Example 971, N-{1-[1-(2-fluorobenzoyl)piperidin-4-yl]-1H-pyrazol-4-yl}-1-(pyridazin-3-yl)azetidine-3-carboxamide]"
2,9.76 nM,"O=C(Nc1ccc(C2CCN(C(=O)CC3CC3)CC2)c(F)c1)C1CN(c2cccnn2)C1 [Example 888, N-{4-[1-(cyclopropylacetyl)piperidin-4-yl]-3-fluorophenyl}-1-(pyridazin-3-yl)azetidine-3-carboxamide]"
3,1.09 nM,"O=C(Nc1ccc(CC2CCN(C(=O)c3ccccc3F)CC2)cc1)C1CN(c2cccnn2)C1 [Example 896, N-(4-{[1-(2-fluorobenzoyl)piperidin-4-yl]methyl}phenyl)-1-(pyridazin-3-yl)azetidine-3-carboxamide]"
4,1.97 nM,"Cc1ccsc1C(=O)N1CCC(Cc2ccc(NC(=O)C3CN(c4cccnn4)C3)cc2)CC1 [Example 940, N-[4-({1-[(3-methylthiophen-2-yl)carbonyl]piperidin-4-yl}methyl)phenyl]-1-(pyridazin-3-yl)azetidine-3-carboxamide]"
5,67 nM,"Cc1nnccc1N1CC(C(=O)Nc2ccc(C3CCN(C(=O)c4ccccc4F)CC3)cc2)C1 [Example 909, N-{4-[1-(2-fluorobenzoyl)piperidin-4-yl]phenyl}-1-(3-methylpyridazin-4-yl)azetidine-3-carboxamide]"
6,2.63 nM,"CCC(=O)N1CCC(Cc2ccc(NC(=O)C3CN(c4cccnn4)C3)cc2)CC1 [Example 958, N-{4-[(1-propanoylpiperidin-4-yl)methyl]phenyl}-1-(pyridazin-3-yl)azetidine-3-carboxamide]"
7,2.7 nM,"O=C(Nc1ccc(C2CCN(C(=O)c3ccccc3F)CC2)nc1)C1CN(c2cccnn2)C1 [Example 914, N-{6-[1-(2-fluorobenzoyl)piperidin-4-yl]pyridin-3-yl}-1-(pyridazin-3-yl)azetidine-3-carboxamide]"
